The text below walks through data of patent US11434205B2, “Substituted imidazole carboxylate derivatives and the use thereof” (priority 2018, dated 2022).

The subject of data set [1] is rats. The class given is in vivo, rat. The following applies: for recovery time of the test animals' righting reflex: rats of the MAP/HR figures, 2×ED50, tail vein, same value in min. The method, then:
The Effects of the Compounds on the Circulatory Function were Measured in Rats Using a Small Animal Implanted Physiological Signal Telemetry System
The anesthetic activity of the compounds was assessed in rats using a LORR assay and the up and down method was used to determine ED50. […] A small animal implantable physiological signal telemetry system from DSI (Data Science International, Inc.) was used to measure the changes in heart rate (HR) and blood pressure in rats during 30 min after administration. Then mean arterial pressure (MAP) and HR were used as representative indicators to determine hemodynamic stability of the compounds of the present invention in rats.
A small animal implantable physiological signal telemetry system from DSI (Data Science International, Inc.) including implants (RATHD-521, DSI, United States), receiver boards (RPC-1, DSI, United States), signal conversion devices (DEM, DSI, USA), perfusion glue (DSI, USA), fibrin membrane (DSI, USA), etc.
First, animal models were established. A left ventricular catheter, an abdominal aortic catheter and ECG wires were placed into rats. At least one week after surgery, data were recorded.
Administration procedure: rats were put into a restraint device with a 20 G indwelling catheter placed into a lateral tail vein. After administration of 0.2 mL heparin, a pre-filled extension tube was attached and taped to the tail vein to secure the extension tube. Then the rats were removed from the restraint device to a cage before placing them together on the signal receiver. […] Finally, the pharmacological effects, adverse reactions, and behavioural manifestations of the rats were observed and recorded
Data collection: After setting the data collection parameters on the software, the power of the implant was turned on to start data collection. In this experiment, data recording frequency was set to 15 s. Data collection was continuously recorded for 30 min before and after administration of the drugs in rats. After data acquisition, the test was stopped.

The subject of data set [2] is rats. The following applies: for Recovery time after stopping infusion: after 1 hour infusion at 2×MIR; for Adverse reactions: Tremor (incidence): continuous infusion 2×MIR; for Onset time: emulsion, continuous infusion at 2×MIR. The method, then: Pharmacological Effects of the Compounds on Continuous Infusion in Rats
Adult male Sprague-Dawley rats with body weight ranging from 250 to 300 gm were selected for continuous infusion test. […] Time to recovery of righting reflex from stopping infusion, and time to fully awake from stopping infusion were recorded.

The subject of data set [3] is rats. The class given is in vivo, rat. The following applies: rats of the MAP/HR figures, 2×ED50, tail vein.
For data set [4], the system named is secretion of corticosterone, H295R cell line. Kind of data set: cells. The following applies: for pEC50: Homo sapiens, NCI-H295R, read-out: EC50 (Corticosterone). The class given is cell-based. The method, then: (§1) The Effects of the Compounds on Adrenocortical Function In Vitro Test
(§2) Then secretion of the cortisol and corticosterone in the supernatant, was measured using HPLC-MS/MS method to determine whether the compounds of the present invention had adrenotoxic potential.

Data set [5] relates to secretion of cortisol, H295R cell line. Kind of data set: cells. The class given is cell-based. The conditions noted are these: for pEC50: Homo sapiens, NCI-H295R, read-out: EC50 (Cortisol). The method, then: as §1, §2
Where [6] appears, read: H295R cell line, 0.1-10000 nM, HPLC-MS/MS, Table D3.
Where [7] appears, read: H295R cell line, 0.1-10000 nM, HPLC-MS/MS, Table E3.

pEC50: −log10 of the molar value. Where two headings read alike, the source gives them in different places.

Turning to `C[C@H](c1ccccc1)n1cncc1C(=O)OCC1(CO)CC1` [Compound A7], the “recovery time of the test animals' righting reflex” value in the data set with rats [1] was 1.83 min. Further, in the data set on rats [2], the “Recovery time after stopping infusion” value was in the range of 7 to 9 min, the “Adverse reactions: Tremor (incidence)” value is “Tremor (4/6)” and the “Onset time” value lay within 2 to 3 min. In the data set on rats [3], the “recovery time of the test animals' righting reflex” value was 110 s.
Regarding `C[C@H](c1ccccc1)n1cncc1C(=O)OCC1CC1` [Compound A15], the “recovery time of the test animals' righting reflex” value in the data set on rats [1] is reported as 3.22 min. Moreover, in the data set on rats [2], the “Recovery time after stopping infusion” value lay in the range of 12 to 15 min, the “Adverse reactions: Tremor (incidence)” value was “Tremor (5/6)” and the “Onset time” value is 2 to 3 min. For the same compound, the “recovery time of the test animals' righting reflex” value in the data set with rats [3] is reported as 193 s.
Regarding `C[C@H](c1ccccc1)n1cncc1C(=O)SCC1CCC1` [Compound A27], the “recovery time of the test animals' righting reflex” value in the data set on rats [1] was determined as 2.10 min; in the data set with rats [3], 126 s.
For the compound `COCC1(CSC(=O)c2cncn2[C@H](C)c2ccccc2)CCC1` [Compound A28], in data set [4] (H295R, Table A3), the “Corticosterone as an indicator to determine the presence of inhibition” value (“Corticosterone as an indicator … of inhibition” below) came to 0. For the same compound, the pEC50 in data set [4] and in data set [5] was less than 6.00 in each case. Further, in data set [5] (H295R, Table A3), the “Cortisol as an indicator to determine the presence of inhibition” value (from here on “Cortisol as an indicator … of inhibition”) turned out to be 0. In addition, the “recovery time of the test animals' righting reflex” value with rats [1] worked out at 7.25 min; with rats [3], 435 s.
In the case of `C[C@H](c1ccccc1)n1cncc1C(=O)SC1CCC1` [Compound A29], the entries for the “recovery time of the test animals' righting reflex” value with rats [1] and in the data set on rats [3] were 4.25 min and 255 s, respectively.
In the same order, the values of `C[C@H](c1ccccc1)n1cncc1C(=O)SCC1CC(F)(F)C1` [Compound A45] are 3.33 min and 200 s.
Turning to `CSCC1(CSC(=O)c2cncn2[C@H](C)c2ccccc2)CCC1` [Compound A46], the “Corticosterone as an indicator … of inhibition” value in data set [4] (H295R, Table A3) is on record as 0. Moreover, the pEC50 in data set [4] and in data set [5] was less than 7.00 in each case. For the same compound, the “Cortisol as an indicator … of inhibition” value in data set [5] (H295R, Table A3) stood at 0.
Regarding `C[C@H](c1ccccc1)n1cncc1C(=O)OC(C)(C)C1OC1(C)C` (stereo partly drawn) [Compound B25], the “Corticosterone as an indicator … of inhibition” value in data set [4] (H295R, Table B3) is given as 0. In addition, in data set [5] (H295R, Table B3), the “Cortisol as an indicator … of inhibition” value was determined as 0. Besides, the pEC50 in data set [5] was less than 6.00.
For `CC(=O)C1(OC(=O)c2cncn2[C@H](C)c2ccccc2)CCC1` [Compound C2], the figures for the “recovery time of the test animals' righting reflex” value in the data set with rats [1] and in the data set with rats [3] were 3.03 min and 182 s, respectively.
Regarding `CC(=O)C1(COC(=O)c2cncn2[C@H](C)c2ccccc2)CC1` [Compound C4], the “Corticosterone as an indicator … of inhibition” value in data set [4] (H295R, Table C3) is 0. In addition, the pEC50 in data set [4] and in data set [5] was less than 6.00 each time. The “Cortisol as an indicator … of inhibition” value in data set [5] (H295R, Table C3) amounted to 0.
For `CC(=O)C1(COC(=O)c2cncn2[C@H](C)c2ccccc2)COC1` [Compound C5], the “Corticosterone as an indicator … of inhibition” value in data set [4] (H295R, Table C3) was 0. Also, the pEC50 in data set [4] and in data set [5] was less than 6.00 in each case. Besides, the “Cortisol as an indicator … of inhibition” value in data set [5] (H295R, Table C3) is recorded as 0.
Regarding `CC(=O)COC(=O)c1cncn1[C@H](C)c1ccccc1` [Compound C6], the “recovery time of the test animals' righting reflex” value in the data set on rats [1] is 2.0 min; in the data set with rats [3], 120 s.
On the same counts, the results for `CC(=O)C(C)(C)OC(=O)c1cncn1[C@H](C)c1ccccc1` [Compound C8] are 2.83 min and 170 s.
For `C[C@H](c1ccccc1)n1cncc1C(=O)OC[S+](C)[O-]` (stereo partly drawn) [Compound C9], the “Corticosterone as an indicator … of inhibition” value in data set [4] (H295R, Table C3) was determined as 0. Further, the pEC50 in data set [4] and in data set [5] was less than 5.00 each time. The “Cortisol as an indicator … of inhibition” value in data set [5] (H295R, Table C3) amounted to 0.
With `C[C@H](c1ccccc1)n1cncc1C(=O)OCC[S+](C)[O-]` (stereo partly drawn) [Compound C10], in data set [4] (H295R, Table C3), the “Corticosterone as an indicator … of inhibition” value was 0. The pEC50 in data set [4] and in data set [5] was less than 5.00 throughout. For the same compound, the “Cortisol as an indicator … of inhibition” value in data set [5] (H295R, Table C3) was 0.
With `CC(=O)C1(COC(=O)c2cncn2[C@H](C)c2ccccc2)CCC1` [Compound C11], the “Corticosterone as an indicator … of inhibition” value in data set [4] (H295R, Table C3) was found to be 0. For the same compound, the pEC50 in data set [4] and in data set [5] was less than 6.00 in each case. The “Cortisol as an indicator … of inhibition” value in data set [5] (H295R, Table C3) is reported as 0.
Regarding `C[C@H](c1ccccc1)n1cncc1C(=O)OCC1(C=O)COC1` [Compound C12], the “Corticosterone as an indicator … of inhibition” value in data set [4] (H295R, Table C3) worked out at 0. Further, the pEC50 in data set [4] and in data set [5] was less than 6.00 each time. In data set [5] (H295R, Table C3), the “Cortisol as an indicator … of inhibition” value is on record as 0.
For the compound `CC(=O)CC(C)(C)OC(=O)c1cncn1[C@H](C)c1ccccc1` [Compound C13], in data set [4] (H295R, Table C3), the “Corticosterone as an indicator … of inhibition” value was found to be 0. The pEC50 in data set [4] and in data set [5] was less than 5.00 in each case. Further, the “Cortisol as an indicator … of inhibition” value in data set [5] (H295R, Table C3) came to 0.
Consider `CC(=O)C(C)(C)SC(=O)c1cncn1[C@H](C)c1ccccc1` [Compound C22], for which the “recovery time of the test animals' righting reflex” value with rats [1] amounted to 1.55 min; in the data set with rats [3] it was 93 s.
In the same order, the values of `CC(=O)CCSC(=O)c1cncn1[C@H](C)c1ccccc1` [Compound C23] are 3.43 min and 206 s.
Regarding `C=C(OCC)C1(OC(=O)c2cncn2[C@H](C)c2ccccc2)COC1` [Compound D2], in data set [4] (setting [6]), the “Corticosterone as an indicator … of inhibition” value turned out to be 0. The pEC50 in data set [4] and in data set [5] was less than 6.00 each time. The “Cortisol as an indicator … of inhibition” value in data set [5] (setting [6]) came out at 0. Further, the “recovery time of the test animals' righting reflex” value in the data set with rats [1] was 5.92 min; in the data set on rats [3] it was 355 s.
For `C/C=C/C1(OC(=O)c2cncn2[C@H](C)c2ccccc2)CCC1` [Compound D20], the “Corticosterone as an indicator … of inhibition” value in data set [4] (setting [6]) amounted to 0. Further, the pEC50 in data set [4] and in data set [5] was less than 5.00 in each case. Besides, the “Cortisol as an indicator … of inhibition” value in data set [5] (setting [6]) stood at 0.
In the case of `C=CC1(OC(=O)c2cncn2[C@H](C)c2ccccc2)CCCCC1` [Compound D35], in data set [4] (setting [6]), the “Corticosterone as an indicator … of inhibition” value came out at 0. The pEC50 in data set [4] and in data set [5] was less than 6.00 throughout. The “Cortisol as an indicator … of inhibition” value in data set [5] (setting [6]) is recorded as 0. Also, the “recovery time of the test animals' righting reflex” value with rats [1] turned out to be 3.33 min; with rats [3] it was 200 s.
Take `C=CCC1(OC(=O)c2cncn2[C@H](C)c2ccccc2)COC1` [Compound D41]: the “Corticosterone as an indicator … of inhibition” value in data set [4] (setting [6]) stood at 0. Also, the pEC50 in data set [4] and in data set [5] was less than 5.00 throughout. Further, the “Cortisol as an indicator … of inhibition” value in data set [5] (setting [6]) was 0. For the same compound, the results for the “recovery time of the test animals' righting reflex” value in the data set with rats [1] and in the data set on rats [3] were 5.92 min and 355 s, respectively.
Turning to `C[C@H](c1ccccc1)n1cnc(F)c1C(=O)OC1(C=C=S)CCCCC1` [Compound E23], the “recovery time of the test animals' righting reflex” value is 1.53 min with rats [1] and 92 s with rats [3].
Consider `COCC1(COC(=O)c2c(Cl)ncn2[C@H](C)c2ccccc2)CCC1` [Compound E102], for which, in data set [4] (setting [7]), the “Corticosterone as an indicator … of inhibition” value was 0. Also, the pEC50 in data set [4] and in data set [5] was less than 5.00 each time. In data set [5] (setting [7]), the “Cortisol as an indicator … of inhibition” value was 0. The “recovery time of the test animals' righting reflex” value in the data set on rats [1] turned out to be 4.80 min; in the data set with rats [3] it was 288 s.
Take `C=CC#CC(C)OC(=O)c1c(Cl)ncn1[C@H](C)c1ccccc1` (stereo partly drawn) [Compound E121]: the “recovery time of the test animals' righting reflex” value is reported as 3.07 min in the data set with rats [1] and 184 s in the data set with rats [3].
Turning to `CC(C)c1cccc(C(C)C)c1O` [propofol, reference compound], the “recovery time of the test animals' righting reflex” value in the data set on rats [1] was found to be 10.75 min; in the data set on rats [3], 645 s. For the same compound, the “effect on the circulatory function (MAP, HR)” value with rats [1] (rats, 2×ED50, 30 min after administration) is listed as “significant inhibition of the circulatory function”.
